From ChEMBL document CHEMBL4130359, “Indazole-based ligands for estrogen-related receptor α as potential anti-diabetic agents” (Eur J Med Chem, 2017)

Tests used:
Rattus norvegicus [1] = assay: Toxicity in Zucker rat sub-chronic fa/fa prediabetic model assessed as body weight at 10 mg/kg, po qd for 29 days measured on day 29 post last dose (reference value: 533 +/- 10 g); assay type: organism-based; settings: in vivo, 696 h
Rattus norvegicus [2] = assay: Toxicity in Zucker rat sub-chronic fa/fa prediabetic model assessed as serum AST level at 10 mg/kg, po qd for 31 days measured on day 32 (reference value: 187 +/- 37 U/L); assay type: organism-based; settings: in vivo, 744 h
Rattus norvegicus [3] = assay: Toxicity in Zucker rat sub-chronic fa/fa prediabetic model assessed as change in body weight at 10 mg/kg, po qd for 29 days measured on day 1 to 29 during compound dosing (reference value: 140 +/- 7 g); assay type: organism-based; settings: in vivo, 696 h
Rattus norvegicus [4] = assay: Toxicity in […] chronic ob/ob model assessed as serum triglyceride level at 10 mg/kg, po qd for 31 days measured on day 32 (reference value: 329 +/- 36 mg/dl); assay type: organism-based; settings: in vivo, 744 h
Rattus norvegicus [5] = assay: Toxicity in Zucker rat sub-chronic fa/fa prediabetic model assessed as liver weight at 10 mg/kg, po qd for 31 days measured on day 32 (reference value: 28 +/- 1.6 g); assay type: organism-based; settings: in vivo, 744 h
Rattus norvegicus [6] = assay: Toxicity in […] model assessed as serum cholesterol level at 10 mg/kg, po qd for 31 days measured on day 32 (reference value: 195 +/- 5.5 mg/dl); assay type: organism-based; settings: in vivo, 744 h
Rattus norvegicus [7] = assay: Toxicity in […] model assessed as serum ALT level at 10 mg/kg, po qd for 31 days measured on day 32 (reference value: 127 +/- 9 U/L); assay type: organism-based; settings: in vivo, 744 h
Rattus norvegicus [8] = assay: Toxicity in […] chronic ob/ob model assessed as food intake at 10 mg/kg, po qd for 28 days measured on day 1 to 28 during compound dosing (reference value: 170.6 +/- 3 g); assay type: organism-based; settings: in vivo, 672 h
Rattus norvegicus [9] = assay: Toxicity in […] chronic ob/ob model assessed as epididymal white adipose tissue weight at 10 mg/kg, po qd for 31 days measured on day 32 (reference value: 3.92 +/- 0.14 g); assay type: organism-based; settings: in vivo, 744 h
Rattus norvegicus [10] = assay: Toxicity in Zucker rat sub-chronic fa/fa prediabetic model assessed as serum BUN level at 10 mg/kg, po qd for 31 days measured on day 32 (reference value: 28.3 +/- […]); assay type: organism-based; settings: in vivo, 744 h
Rattus norvegicus [11] = assay: Toxicity in Zucker rat sub-chronic fa/fa prediabetic model assessed as serum cholesterol level at 10 mg/kg, po qd for 31 days measured on day 32 (reference value: 295 +/- 91 mg/dl); assay type: organism-based; settings: in vivo, 744 h
Rattus norvegicus [12] = assay: Toxicity in […] model assessed as serum BUN level at 10 mg/kg, po qd for 31 days measured on day 32 (reference value: 28.3 +/- […]); assay type: organism-based; settings: in vivo, 744 h
Rattus norvegicus [13] = assay: Toxicity in Zucker rat sub-chronic fa/fa prediabetic model assessed as brown adipose tissue weight at 10 mg/kg, po qd for 31 days measured on day 32 (reference value: 2.1 +/- 0.3 g); assay type: organism-based; settings: in vivo, 744 h
Rattus norvegicus [14] = assay: Toxicity in Zucker rat sub-chronic fa/fa prediabetic model assessed as triglyceride level per gram liver at 10 mg/kg, po qd for 31 days measured on day 32 (reference value: 163.4 +/- 8.3 mg); assay type: organism-based; settings: in vivo, 744 h
Rattus norvegicus [15] = assay: Antidiabetic activity in […] chronic ob/ob model assessed as increase in plasma adiponectin level at 10 mg/kg, po qd for 31 days measured on day 32 by ELISA relative to control; assay type: functional
Rattus norvegicus [16] = assay: Toxicity in Zucker rat sub-chronic fa/fa prediabetic model assessed as epididymal white adipose tissue weight at 10 mg/kg, po qd for 31 days measured on day 32 (reference value: 13.9 +/- 0.6 g); assay type: organism-based; settings: in vivo, 744 h
Rattus norvegicus [17] = assay: Toxicity in Zucker rat sub-chronic fa/fa prediabetic model assessed as food intake at 10 mg/kg, po qd for 29 days measured on day 1 to 29 during compound dosing (reference value: 969 +/- 18 g); assay type: organism-based; settings: in vivo, 696 h
Rattus norvegicus [18] = assay: Toxicity in […] model assessed as liver weight at 10 mg/kg, po qd for 31 days measured on day 32 (reference value: 2.77 +/- 0.16 g); assay type: organism-based; settings: in vivo, 744 h
Rattus norvegicus [19] = assay: Toxicity in Zucker rat sub-chronic fa/fa prediabetic model assessed as serum triglyceride level at 10 mg/kg, po qd for 31 days measured on day 32 (reference value: 1382 +/- 268 mg/dl); assay type: organism-based; settings: in vivo, 744 h
Rattus norvegicus [20] = assay: Toxicity in Zucker rat sub-chronic fa/fa prediabetic model assessed as serum ALT level at 10 mg/kg, po qd for 31 days measured on day 32 (reference value: 151 +/- 23 U/L); assay type: organism-based; settings: in vivo, 744 h
Rattus norvegicus [21] = assay: Toxicity in […] model assessed as serum AST level at 10 mg/kg, po qd for 31 days measured on day 32 (reference value: 180 +/- 26 U/L); assay type: organism-based; settings: in vivo, 744 h
Rattus norvegicus [22] = assay: Toxicity in […] chronic ob/ob model assessed as change in body weight at 10 mg/kg, po qd for 28 days measured on day 1 to 28 during compound dosing (reference value: 9.9 +/- 1.27 g); assay type: organism-based; settings: in vivo, 672 h
Rattus norvegicus [23] = assay: Toxicity in […] chronic ob/ob model assessed as body weight at 10 mg/kg, po qd for 28 days measured on day 28 post last dose (reference value: 47.3 +/- 1.06 g); assay type: organism-based; settings: in vivo, 672 h
Rattus norvegicus [24] = assay: Toxicity in Zucker rat sub-chronic fa/fa prediabetic model assessed as insulin level per gram pancreas at 10 mg/kg, po qd for 31 days measured on day 32 (reference value: 55.2 +/- 5.5 ug); assay type: organism-based; settings: in vivo, 744 h
Rattus norvegicus [25] = assay: Toxicity in Zucker rat sub-chronic fa/fa prediabetic model assessed as serum creatinine level at 10 mg/kg, po qd for 31 days measured on day 32 (reference value: 0.71 +/- 0.07 mg/dl); assay type: organism-based; settings: in vivo, 744 h
Rattus norvegicus [26] = assay: Toxicity in […] model assessed as serum creatinine level at 10 mg/kg, po qd for 31 days measured on day 32 (reference value: 0.55 +/- 0.018 mg/dl); assay type: organism-based; settings: in vivo, 744 h
Rattus norvegicus [27] = assay: Toxicity in Zucker rat sub-chronic fa/fa prediabetic model assessed as heart weight at 10 mg/kg, po qd for 31 days measured on day 32 (reference value: 1.19 +/- 0.04 g); assay type: organism-based; settings: in vivo, 744 h
Rattus norvegicus [28] = assay: Toxicity in […] chronic ob/ob model assessed as brown adipose tissue weight at 10 mg/kg, po qd for 31 days measured on day 32 (reference value: 0.59 +/- 0.05 g); assay type: organism-based; settings: in vivo, 744 h

## CN(CCOc1ccc(CC2SC(=O)NC2=O)cc1)c1ccccn1 (stereo not drawn) [ROSIGLITAZONE]
Rattus norvegicus [1]
  Activity: 617 g
Rattus norvegicus [2]
  Activity: 147 U/L
Rattus norvegicus [3]
  Activity: 213 g
Rattus norvegicus [4]
  Activity: 77 mg/dL
Rattus norvegicus [5]
  Activity: 20.9 g
Rattus norvegicus [6]
  Activity: 184 mg/dL
Rattus norvegicus [7]
  Activity: 366 U/L
Rattus norvegicus [8]
  Activity: 157.3 g
Rattus norvegicus [9]
  Activity: 3.32 g
Rattus norvegicus [10]
  Activity: 27.2 mg/dL
Rattus norvegicus [11]
  Activity: 141 mg/dL
Rattus norvegicus [12]
  Activity: 33.1 mg/dL
Rattus norvegicus [13]
  Activity: 7.6 g
Rattus norvegicus [14]
  Activity: 102.5 mg
Rattus norvegicus [15]
  fold change (FC): 2.6
Rattus norvegicus [16]
  Activity: 22.7 g
Rattus norvegicus [17]
  Activity: 1248 g
Rattus norvegicus [18]
  Activity: 3.93 g
Rattus norvegicus [19]
  Activity: 195 mg/dL
Rattus norvegicus [20]
  Activity: 136 U/L
Rattus norvegicus [21]
  Activity: 364 U/L
Rattus norvegicus [22]
  Activity: 13 g
Rattus norvegicus [23]
  Activity: 50.5 g
Rattus norvegicus [24]
  Activity: 90.7 µg
Rattus norvegicus [25]
  Activity: 0.54 mg/dL
Rattus norvegicus [26]
  Activity: 0.41 mg/dL
Rattus norvegicus [27]
  Activity: 1.37 g
Rattus norvegicus [28]
  Activity: 1.26 g
